# Data taken from ChEMBL document CHEMBL5149973, “Agaricus bisporus-Derived Glucosamine Hydrochloride Facilitates Skeletal Injury Repair through Bmp Signaling in Zebrafish Osteoporosis Model” (J Nat Prod, 2021).
# Active and inactive are the calls of the source. No cut-off for these calls is given here.
# Key:
# Danio rerio [1] = organism: Danio rerio; assay: Anti-osteoporosis activity in FAC-induced skeletal injury Zebrafish larvae assessed as reduction in bone damage measured for 10 day post fertilization by Alizarin red staining based assay; type: functional, Larva; design: scale not given: the % may be the effect or the level left
# Danio rerio [2] = organism: Danio rerio; assay: Suppression of Bmp signaling in Zebrafish embryos assessed as decrease in sp7 gene expression level at 0.1 % measured at 26 hrs post fertilization by semiquantitative PCR analysis; type: functional, tissue-based; conditions: Embryo
# Danio rerio [3] = organism: Danio rerio; assay: Induction of Zebrafish embryo skeletal development assessed as increase in Bmp4 mRNA expression level in gastrula stage at 0.05 to 0.1 % measured at 24 hrs post fertilization by ISH analysis; type: functional, tissue-based; conditions: dose 0.05-0.1 %
# Danio rerio [4] = organism: Danio rerio; assay: Anti-osteoporosis activity in FAC-induced skeletal injury Zebrafish larvae assessed as increase in Col10a1a mRNA expression level measured for 10 day post fertilization by semiquantitative-PCR analysis; type: functional, organism-based; conditions: Larva
# Osteoblast [5] = assay: Induction of osteoblast differentiation in Zebrafish embryo assessed as upregulation of runx2b gene expression in head measured at 0.75 to 72 hrs post fertilization at 0.05 to 0.3 % by […] analysis; type: functional; conditions: Danio rerio, dose 0.05-0.3 %, time 0.75-72 hrs
# Danio rerio [6] = organism: Danio rerio; assay: Anti-osteoporosis activity in FAC-induced skeletal injury Zebrafish assessed as rescue of skeletal density in head at 0.1 % measured for 10 day post fertilization; type: functional, organism-based
# Danio rerio [7] = organism: Danio rerio; assay: Anti-osteoporosis activity in FAC-induced skeletal injury Zebrafish larvae assessed as increase in Sox9b mRNA expression level measured for 10 day post fertilization by semiquantitative-PCR analysis; type: functional, organism-based; conditions: Larva
# Danio rerio [8] = organism: Danio rerio; assay: Suppression of Bmp signaling in Zebrafish embryos assessed as decrease in Bmp2b gene expression level at 0.1 % measured at 26 hrs post fertilization by semiquantitative PCR analysis; type: functional, tissue-based; conditions: Embryo
# Danio rerio [9] = organism: Danio rerio; assay: Induction of Zebrafish embryo skeletal development assessed as increase in Smad1 gene expression level in spine at 0.1 % measured for 0.75 to 24 hrs post fertilization by ISH analysis; type: functional, tissue-based; conditions: time 0.75-24 hrs
# Danio rerio [10] = organism: Danio rerio; assay: Induction of Zebrafish embryo skeletal development assessed as increase in gfp expression level in ventral head at 0.05 to 0.3 % measured at 24 to 72 hrs post fertilization by DAPI staining based analysis; type: functional, tissue-based; conditions: dose 0.05-0.3 %, time 24-72 hrs
# [11] = Induction of Zebrafish Larva cartilage development assessed as increase in bone mineralization at 0.3 % measured at 6 days post fertilization by Alizarin red staining based assay; type: functional, Danio rerio; conditions: time 6 day
# Danio rerio [12] = organism: Danio rerio; assay: Induction of Zebrafish Larva caudal fin regeneration assessed as increase in bone mass measured for 15 days by Calcein staining based assay; type: functional; conditions: time 15.0 day
# Danio rerio [13] = organism: Danio rerio; assay: Induction of transgenic Zebrafish embryo skeletal development assessed as increase in GFP expression level in head at 0.05 to 0.3 % measured at 24 to 72 hrs post fertilization by DAPI staining based analysis; type: functional, tissue-based; conditions: dose 0.05-0.3 %, time 24-72 hrs
# Danio rerio [14] = organism: Danio rerio; assay: Anti-osteoporosis activity in FAC-induced skeletal injury Zebrafish assessed as rescue of skeletal density in caudal fins at 0.1 % measured for 10 day post fertilization; type: functional, organism-based
# Danio rerio [15] = organism: Danio rerio; assay: Induction of Zebrafish embryo skeletal development assessed as increase in Bmp2b mRNA expression level in bud region at 0.1 to 0.3 % measured at 24 hrs post fertilization by ISH analysis; type: functional, tissue-based; conditions: dose 0.1-0.3 %
# [16] = Induction of Zebrafish embryo skeletal development assessed as mortality rate of embryo at 0.3 % measured after 72 hrs post fertilization by Alcian blue staining based assay; type: functional, Danio rerio
# Danio rerio [17] = organism: Danio rerio; assay: Induction of Zebrafish embryo skeletal development assessed as nuclear localization of p-Smad1 in tail at 0.1 % measured at 24 to 72 hrs post fertilization by DAPI staining based analysis; type: functional, tissue-based; conditions: time 24-72 hrs
# Danio rerio [18] = organism: Danio rerio; assay: Induction of Zebrafish embryo skeletal development assessed as increase in Bmp2b mRNA expression level in head at 0.1 to 0.3 % measured at 24 hrs post fertilization by ISH analysis; type: functional, tissue-based; conditions: dose 0.1-0.3 %
# Danio rerio [19] = organism: Danio rerio; assay: Induction of Zebrafish embryo skeletal development assessed as nuclear localization of p-Smad1 in head at 0.1 % measured at 24 to 72 hrs post fertilization by DAPI staining based analysis; type: functional, tissue-based; conditions: time 24-72 hrs
# [20] = Induction of Zebrafish embryo skeletal development assessed as mortality rate of embryo at 0.03 % measured after 72 hrs post fertilization by Alcian blue staining based assay; type: functional, Danio rerio
# Danio rerio [21] = organism: Danio rerio; assay: Suppression of Bmp signaling in Zebrafish tBr injected mRNA embryos assessed as reduction in slight loss of tail tissue at 2.5 uM measured at 26 hrs post fertilization; type: functional, Embryo; design: scale not given: the % may be the effect or the level left
# Danio rerio [22] = organism: Danio rerio; assay: Induction of Zebrafish embryo skeletal development assessed as increase in Smad5 gene expression level in head at 0.1 % measured for 0.75 to 24 hrs post fertilization by ISH analysis; type: functional, tissue-based; conditions: time 0.75-24 hrs
# Danio rerio [23] = organism: Danio rerio; assay: Induction of Zebrafish embryo skeletal development assessed as upregulation of col10a1a gene expression in branchiostegal at 0.01 to 0.3 % measured after 72 hrs post fertilization by […] analysis; type: functional; conditions: dose 0.01-0.3 %
# Danio rerio [24] = organism: Danio rerio; assay: Suppression of Bmp signaling in Zebrafish embryos assessed as decrease in Bmp4 gene expression level at 0.1 % measured at 26 hrs post fertilization by semiquantitative PCR analysis; type: functional, tissue-based; conditions: Embryo
# Danio rerio [25] = organism: Danio rerio; assay: Anti-osteoporosis activity in FAC-induced skeletal injury Zebrafish larvae assessed as increase in Col1a2 mRNA expression level measured for 10 day post fertilization by semiquantitative-PCR analysis; type: functional, organism-based; conditions: Larva
# Osteoblast [26] = assay: Induction of osteoblast differentiation in transgenic osx mCherry Zebrafish embryo assessed as increase in Col10a1a mRNA expression in fin at 0.1 % measured after 15 days by semiquantitative PCR analysis; type: functional; conditions: Danio rerio, time 15.0 day
# Osteoblast [27] = assay: Induction of osteoblast differentiation in transgenic osx mCherry Zebrafish embryo assessed as increase in sp7 mRNA expression in distal fin rays at 0.1 % measured after 6 days by ISH analysis; type: functional; conditions: Danio rerio, time 6.0 day
# [28] = Induction of Zebrafish Larva cartilage development assessed as increase in H2 phenotype ratio at 0.3 % measured after 5 days post fertilization by Alcian blue staining based assay; type: functional, Danio rerio; conditions: time 5 day
# Danio rerio [29] = organism: Danio rerio; assay: Suppression of Bmp signaling in Zebrafish embryos assessed as decrease in Col10a1a gene expression level at 0.1 % measured at 26 hrs post fertilization by semiquantitative PCR analysis; type: functional, tissue-based; conditions: Embryo
# Danio rerio [30] = organism: Danio rerio; assay: Suppression of Bmp signaling in Zebrafish embryos assessed as decrease in Sox9a gene expression level at 0.1 % measured at 26 hrs post fertilization by semiquantitative PCR analysis; type: functional, tissue-based; conditions: Embryo
# Danio rerio [31] = organism: Danio rerio; assay: Suppression of Bmp signaling in Zebrafish embryo assessed as reduction in slight loss of tail tissue at 0.1 % measured at 26 hrs post fertilization in presence of dorsomorphin; type: functional; design: scale not given: the % may be the effect or the level left
# Osteoblast [32] = assay: Induction of osteoblast differentiation in Zebrafish embryo assessed as upregulation of sox9a gene expression in head measured at 0.75 to 72 hrs post fertilization at 0.05 to 0.3 % by […] analysis; type: functional; conditions: Danio rerio, dose 0.05-0.3 %, time 0.75-72 hrs
# Danio rerio [33] = organism: Danio rerio; assay: Induction of Zebrafish embryo skeletal development assessed as upregulation of col1a2 gene expression at 0.05 to 0.3 % measured after 72 hrs post fertilization by […] analysis; type: functional, tissue-based; conditions: dose 0.05-0.3 %
# Danio rerio [34] = organism: Danio rerio; assay: Induction of Zebrafish embryo skeletal development assessed as increase in gfp expression level in tail at 0.05 to 0.3 % measured at 24 to 72 hrs post fertilization by DAPI staining based analysis; type: functional, tissue-based; conditions: dose 0.05-0.3 %, time 24-72 hrs
smiles,measurement,setting,value
Cl.N[C@@H]1[C@@H](O)[C@H](O)[C@@H](CO)O[C@H]1O,Activity,Danio rerio [1],70%
same,Activity,Danio rerio [2],Active
same,Activity,Danio rerio [3],Active
same,Activity,Danio rerio [4],Active
same,Activity,Osteoblast [5],Active
same,Activity,Danio rerio [6],Active
same,Activity,Danio rerio [7],Active
same,Activity,Danio rerio [8],Active
same,Activity,Danio rerio [9],Active
same,Activity,Danio rerio [10],Active
same,Activity,[11],79%
same,Activity,Danio rerio [12],Active
same,Activity,Danio rerio [13],Active
same,Activity,Danio rerio [14],Active
same,Activity,Danio rerio [15],Active
same,Activity,[16],28%
same,Activity,Danio rerio [17],Active
same,Activity,Danio rerio [18],Active
same,Activity,Danio rerio [19],Active
same,Activity,[20],16%
same,Activity,Danio rerio [21],80%
same,Activity,Danio rerio [22],Active
same,Activity,Danio rerio [23],Active
same,Activity,Danio rerio [24],Active
same,Activity,Danio rerio [25],Active
same,Activity,Osteoblast [26],Active
same,Activity,Osteoblast [27],Active
same,Activity,[28],50%
same,Activity,Danio rerio [29],Active
same,Activity,Danio rerio [30],Active
same,Activity,Danio rerio [31],50%
same,Activity,Osteoblast [32],Active
same,Activity,Danio rerio [33],Active
same,Activity,Danio rerio [34],Active
